{"source": "patent US7759373B2", "about": "“Large conductance calcium-activated K channel opener” (Mitsubishi Tanabe Pharma Corporation, priority 2001, dated 2010)", "data": [{"tested_on": "rhythmic bladder contractions induced by substance P", "test": "Inhibitory effect on the rhythmic bladder contractions induced by substance P in anesthetized rats", "type": "in vivo, rat", "conditions": "time during which frequency of rhythmic contraction was completely inhibited, 0.25 mg/kg of the compound, substance P infusion", "description": "Inhibitory effect on the rhythmic bladder contractions induced by substance P in anesthetized rats\nFor the experiments, Sprague-Dawley female rats (9 to 12 weeks old) weighing between 200 to 300 g were used. After urethane anesthetization (subcutaneously administered with a dose of 1.2 g/kg), cannulae were placed in both right and left femoral veins. One intravenous catheter was used for administration of compounds, and the other was for the substance P (0.33 μg/kg/min) infusion. We also cannulated into ureter to pass urine. Polyethylene catheters were inserted into carotid artery for continuous monitoring of arterial blood pressure and heart rate. For continuous infusion, transurethral bladder catheter was inserted into the bladder through the urethra and tied in place by a ligature around the urethral orifice. One end of the catheter was attached to a pressure transducer in order to measure intravesical pressure. The other end of the catheter was used for infusion of saline into the bladder. After stabilization of blood pressure and heart rate and after the bladder was emptied, cystometry was performed by filling the bladder slowly with about 0.6 ml of saline. After about 10 minutes, intravenous infusion of substance P (0.33 μg/kg/min) was started for stabilization of the micturition reflex. Compounds were administered after stable rhythmic bladder contraction was obtained over 15 minutes. All compounds were dissolved or suspended in saline containing 0.5% Tween 80 for intravenous administration (0.1 ml/kg).\nA 100% inhibition time (minute) of the selected compounds of the present invention is shown in the following Table 65 with a rank of A, B or C. These ranges are as mentioned below. A≧20>B≧10>C (minute)", "values": [{"molecule": "2-(4-fluorophenyl)-5-(2-thienyl)oxazole-4-yl propionic acid sodium salt [Preparation Example 338]", "100% inhibition time range": "C (A≧20>B≧10>C (minute))"}, {"molecule": "O=C(O)Cc1nc(-c2ccc(F)cc2)oc1-c1ccccc1", "note": "[Preparation Example 153]", "100% inhibition time range": "B (A≧20>B≧10>C (minute))"}, {"molecule": "Cc1ccc(-c2nc(CC(=O)O)c(-c3cccs3)o2)cc1", "note": "[Preparation Example 156]", "100% inhibition time range": "B (A≧20>B≧10>C (minute))"}, {"molecule": "COc1ccc(-c2oc(-c3ccc(F)cc3)nc2CC(=O)O)cc1OC", "note": "[Preparation Example 160]", "100% inhibition time range": "C (A≧20>B≧10>C (minute))"}, {"molecule": "O=C(O)Cc1nc(-c2ccc(F)cc2)oc1-c1ccccc1F", "note": "[Preparation Example 162]", "100% inhibition time range": "C (A≧20>B≧10>C (minute))"}, {"molecule": "Cc1csc(-c2oc(-c3ccc(F)cc3)nc2CC(=O)O)c1", "note": "[Preparation Example 164]", "100% inhibition time range": "B (A≧20>B≧10>C (minute))"}, {"molecule": "O=C(O)Cc1nc(-c2ccc(F)cc2)oc1-c1ccc(F)c(F)c1", "note": "[Preparation Example 166]", "100% inhibition time range": "B (A≧20>B≧10>C (minute))"}, {"molecule": "OCc1nc(-c2ccc(Cl)cc2)[nH]c1-c1ccccc1", "note": "[Preparation Example 176]", "100% inhibition time range": "C (A≧20>B≧10>C (minute))"}, {"molecule": "Cc1ccc(-c2nc(CC(=O)O)c(-c3ccsc3)o2)cc1", "note": "[Preparation Example 198]", "100% inhibition time range": "C (A≧20>B≧10>C (minute))"}, {"molecule": "O=C(O)Cc1nc(-c2ccc(Cl)cc2)oc1-c1ccco1", "note": "[Preparation Example 201]", "100% inhibition time range": "C (A≧20>B≧10>C (minute))"}, {"molecule": "Cc1cc(-c2oc(-c3ccc(F)cc3)nc2CC(=O)O)sc1CO", "note": "[Preparation Example 233]", "100% inhibition time range": "C (A≧20>B≧10>C (minute))"}, {"molecule": "CC(O)c1ccc(-c2oc(-c3ccc(F)cc3)nc2CC(=O)O)s1", "note": "(centres unmarked) [Preparation Example 234]", "100% inhibition time range": "C (A≧20>B≧10>C (minute))"}, {"molecule": "O=C(O)Cc1nc(-c2ccc(F)cc2)oc1-c1cccc(F)c1", "note": "[Preparation Example 236]", "100% inhibition time range": "C (A≧20>B≧10>C (minute))"}, {"molecule": "O=C(O)Cc1nc(-c2ccc(F)cc2)oc1-c1ccccc1O", "note": "[Preparation Example 237]", "100% inhibition time range": "C (A≧20>B≧10>C (minute))"}, {"molecule": "CS(=O)(=O)Nc1ccccc1-c1oc(-c2ccc(F)cc2)nc1CC(=O)O", "note": "[Preparation Example 238]", "100% inhibition time range": "C (A≧20>B≧10>C (minute))"}, {"molecule": "O=C(O)Cc1nc(-c2ccc(F)cc2)oc1-c1ccc2ncccc2c1", "note": "[Preparation Example 239]", "100% inhibition time range": "C (A≧20>B≧10>C (minute))"}, {"molecule": "O=C(O)Cc1nc(-c2ccc(F)cc2)oc1-c1cccc(Cl)c1", "note": "[Preparation Example 241]", "100% inhibition time range": "C (A≧20>B≧10>C (minute))"}, {"molecule": "O=C(O)Cc1nc(-c2ccc(F)cc2)oc1-c1cc(Cl)ccc1O", "note": "[Preparation Example 242]", "100% inhibition time range": "C (A≧20>B≧10>C (minute))"}, {"molecule": "COc1ccc(-c2oc(-c3ccc(F)cc3)nc2CC(=O)O)cc1F", "note": "[Preparation Example 250]", "100% inhibition time range": "B (A≧20>B≧10>C (minute))"}, {"molecule": "CCOc1c(F)cc(-c2oc(-c3ccc(F)cc3)nc2CC(=O)O)cc1OC", "note": "[Preparation Example 251]", "100% inhibition time range": "C (A≧20>B≧10>C (minute))"}, {"molecule": "O=C(O)Cc1nc(-c2ccc(F)cc2)oc1-c1cc2ccccc2o1", "note": "[Preparation Example 254]", "100% inhibition time range": "C (A≧20>B≧10>C (minute))"}, {"molecule": "O=C(O)Cc1nc(-c2ccc(F)cc2)oc1-c1cccc(O)c1", "note": "[Preparation Example 258]", "100% inhibition time range": "C (A≧20>B≧10>C (minute))"}, {"molecule": "CN(C)c1ccc(-c2nc(CC(=O)O)c(-c3cccs3)o2)cn1", "note": "[Preparation Example 259]", "100% inhibition time range": "B (A≧20>B≧10>C (minute))"}, {"molecule": "CN(C)c1ccc(-c2nc(CC(=O)O)c(-c3ccc(Cl)s3)o2)cn1", "note": "[Preparation Example 260]", "100% inhibition time range": "A (A≧20>B≧10>C (minute))"}, {"molecule": "COc1cccc(-c2nc(CC(=O)O)c(-c3cccs3)o2)c1", "note": "[Preparation Example 263]", "100% inhibition time range": "C (A≧20>B≧10>C (minute))"}, {"molecule": "O=C(O)Cc1nc(-c2ccc(F)cc2)oc1-c1ccco1", "note": "[Preparation Example 270]", "100% inhibition time range": "B (A≧20>B≧10>C (minute))"}, {"molecule": "O=C(O)Cc1nc(-c2cscn2)oc1-c1ccc(Cl)s1", "note": "[Preparation Example 274]", "100% inhibition time range": "B (A≧20>B≧10>C (minute))"}, {"molecule": "O=C(O)Cc1nc(-c2cc3ccccc3cn2)oc1-c1cccs1", "note": "[Preparation Example 276]", "100% inhibition time range": "C (A≧20>B≧10>C (minute))"}, {"molecule": "COc1cc(-c2nc(CC(=O)O)c(-c3ccc(Cl)s3)o2)ccc1O", "note": "[Preparation Example 289]", "100% inhibition time range": "B (A≧20>B≧10>C (minute))"}, {"molecule": "COc1ccc(-c2nc(CC(=O)O)c(-c3ccc(Cl)s3)o2)cc1O", "note": "[Preparation Example 290]", "100% inhibition time range": "B (A≧20>B≧10>C (minute))"}, {"molecule": "CC(C)c1ccc(-c2nc(CC(=O)O)c(-c3cccs3)o2)cc1", "note": "[Preparation Example 291]", "100% inhibition time range": "C (A≧20>B≧10>C (minute))"}, {"molecule": "CC(C)COc1cc(-c2oc(-c3ccc(F)cc3)nc2CC(=O)O)ccc1O", "note": "[Preparation Example 292]", "100% inhibition time range": "C (A≧20>B≧10>C (minute))"}, {"molecule": "COc1cc(-c2oc(-c3ccc(F)cc3)nc2CC(=O)O)ccc1O", "note": "[Preparation Example 293]", "100% inhibition time range": "C (A≧20>B≧10>C (minute))"}, {"molecule": "CCOC(=O)Cc1nc(-c2ccc(F)cc2)oc1-c1ccccc1", "note": "[Preparation Example 296, ethyl 2-(4-fluoro-phenyl)-5-phenyloxazol-4-yl acetate]", "100% inhibition time range": "C (A≧20>B≧10>C (minute))"}, {"molecule": "CCOC(=O)Cc1nc(-c2ccc(N(C)C)nc2)oc1-c1cccs1", "note": "[Preparation Example 331]", "100% inhibition time range": "A (A≧20>B≧10>C (minute))"}, {"molecule": "N#CCCc1nc(-c2ccc(F)cc2)oc1-c1cccs1", "note": "[Preparation Example 337, 4-(2-cyanoethyl)-2-(4-fluorophenyl)-5-(2-thienyl)oxazole]", "100% inhibition time range": "C (A≧20>B≧10>C (minute))"}, {"molecule": "CS(=O)(=O)Nc1nc(-c2ccc(F)cc2)oc1-c1ccc(Cl)c(F)c1.[Na]", "note": "[Preparation Example 348, 5-(4-chloro-3-fluorophenyl)-2-(4-fluorophenyl)oxazol-4-yl methanesulfonamide sodium salt]", "100% inhibition time range": "C (A≧20>B≧10>C (minute))"}, {"molecule": "O=C(O)Cc1[nH]c(-c2cc3ccccc3s2)nc1-c1ccc(Cl)s1", "note": "[Preparation Example 351]", "100% inhibition time range": "C (A≧20>B≧10>C (minute))"}, {"molecule": "COc1ccc(-c2nc(CC(=O)O)c(-c3ccc(Cl)s3)o2)cn1", "note": "[Preparation Example 368]", "100% inhibition time range": "B (A≧20>B≧10>C (minute))"}, {"molecule": "COc1ccc(-c2nc(CC(=O)O)c(-c3ccsc3)o2)cn1", "note": "[Preparation Example 369]", "100% inhibition time range": "B (A≧20>B≧10>C (minute))"}, {"molecule": "CS(=O)(=O)NC(=O)Cc1nc(-c2ccc(F)cc2)oc1-c1ccsc1.[Na]", "note": "[Preparation Example 370, N-[2-(4-fluorophenyl)-5-(3-thienyl)oxazol-4-ylacetyl]methanesulfonamide sodium salt]", "100% inhibition time range": "C (A≧20>B≧10>C (minute))"}]}]}
